Read-outs that look alike come from different tables or passages of the source. Marks after values point to notes of the source that are not given here.
Experiments:
[1] = pig, 500 mg intraosseous, no tourniquet, microdialysis, mean (SD), n = 8; for AUC 0-last: 12 h
Method: (§1) Eight female pigs, from the same supplier and raised under the same conditions, were included in the study (Danish Landrace Breed, age 5 months, weight 78–82 kg). The pigs were kept under general anesthesia with a continuous infusion of propofol (450–650 mg/h) and fentanyl (0.5–0.7 mg/h) throughout the entire study period. The arterial pH and body temperature were monitored and kept in the ranges of 7.37–7.52 and 36.4–40.0 ^∘ C, respectively. After the study, the pigs were euthanized using pentobarbital.
An intraosseous cannula (15 mm) was inserted into the medial tibial condyle approximately 10 mm distal to the epiphyseal line; see Fig. 1. Three tibial microdialysis probes were placed in drill holes, one in the adjacent cancellous bone parallel to and at a mean distance of 9 (range 7–10) mm from the intraosseous cannula tip (drill depth 35±1 mm), one in the cortical bone at the anterior–medial margin of the tibial diaphysis (drill depth 14±0.5 mm), and one within the intramedullary canal of the tibial diaphysis. All drill holes were made with a 2 mm drill, which was paused every few seconds to prevent overheating of the bone tissue. Subsequently, a probe was placed in the synovial fluid of the knee joint using a splittable introducer. Finally, a subcutaneous tissue probe was placed lateral to the knee joint. No tourniquet was applied. Correct positions of all the probes and the distance between the intraosseous cannula and the adjacent cancellous bone microdialysis catheter were verified by fluoroscopy.
Due to continuous perfusion of the microdialysis system, a complete equilibrium across the semipermeable membrane will never occur. The concentration in the dialysate will therefore only represent a fraction of the absolute tissue concentration, which is expressed as the relative recovery. Thus, relative recovery must be determined to assess the absolute tissue concentrations. In the present study, all microdialysis probes were individually calibrated in the beginning of the study using the retrodialysis by drug method (Scheller and Kolb, 1991).
In the present study we used CMA 107 precision pumps ( μ -Dialysis AB, Stockholm, Sweden) producing a flow rate of 1 µL/min and CMA 70 probes (membrane lengths 10 and 20 mm, molecular cutoff 20 kDa).
(§2) Afterwards, all probes were individually calibrated by the retrodialysis method by collecting a 60 min sample. […] The first three dialysates were collected at times 40, 80, and 120 min. Thereafter, dialysates were collected at 60 min intervals from times 120 to 720 min, giving a total of 13 samples from each compartment over 12 h. Blood samples were drawn from a central venous catheter at the midpoint of the microdialysis sample intervals. The dialysates were instantly stored at -80 ^∘ C until analysis. Blood samples were stored at 5 ^∘ C for a maximum of 4 h before being centrifuged at 3000 rpm for 10 min. The obtained plasma aliquots were then stored at -80 ^∘ C until analysis.
(§3) Intra-run (total) imprecisions for the assay were ±1.2 µg/mL (2 standard deviations – SD) at 6.6 and ±3.7 µg/mL (2 SD) at 29.1 µg/mL .
Standard pharmacokinetic parameters were determined separately for each compartment in each pig by non-compartmental analysis using Stata (v. 14.1, StataCorp LLC, College Station, TX, USA). The area under the concentration–time curve (AUC 0-last ) was calculated using the trapezoidal rule. The maxima of all the recorded concentrations were defined as peak drug concentration ( Cmax ) and enabled a calculation of the time to Cmax ( Tmax ).

[2] = tested on: Commonly encountered bacteria in orthopaedic infections; design: method as in Rybak, 2006; EUCAST, 2019; conditions: range for commonly encountered bacteria in orthopaedic infections; ref Rybak, 2006; EUCAST, 2019; cited from earlier work
[3] = proximal tourniquet applied before intraosseous administration, ref Young et al., 2014, Chin et al., 2018, Rubio-Martinez et al., 2006, cited from earlier work
[4] = Plasma vancomycin concentrations after tibial intraosseous administration; conditions: pig, 500 mg intraosseous, no tourniquet, mean (SD), n = 8
Method: as §1, §2, §3
Standard pharmacokinetic parameters were determined separately for each compartment in each pig by non-compartmental analysis using Stata (v. 14.1, StataCorp LLC, College Station, TX, USA). The area under the concentration–time curve (AUC 0-last ) was calculated using the trapezoidal rule. The maxima of all the recorded concentrations were defined as peak drug concentration ( Cmax ) and enabled a calculation of the time to Cmax ( Tmax ). Half-life ( T1/2 ) was determined for all compartments except for tibial cortical bone and calculated as ln(2)/ λeq , where λeq is the terminal elimination rate constant estimated by linear regression of the log concentration on time. For AUC 0-last and Cmax , a mixed model for repeated measurements was applied, taking the variance between pigs into account. The model assumptions were tested by visual diagnosis of residuals, fitted values, and estimates of random effects. A correction for degrees of freedom due to small sample size was handled using the Kenward–Roger approximation method. The t test was used to determine relevant pairwise comparisons. A p value <0.05 was considered to be significant. A Spearman test was used to test the correlation between the distance of the intraosseous cannula and the adjacent cancellous bone drill hole with the peak drug concentration. Statistical analyses were also performed using Stata. […] Values below the quantification limit were set to zero.

[5] = intramedullary canal in the tibia
[6] = synovial fluid of the knee joint

CN[C@H](CC(C)C)C(=O)N[C@H]1C(=O)N[C@@H](CC(N)=O)C(=O)N[C@H]2C(=O)N[C@H]3C(=O)N[C@H](C(=O)N[C@H](C(=O)O)c4cc(O)cc(O)c4-c4cc3ccc4O)[C@H](O)c3ccc(c(Cl)c3)Oc3cc2cc(c3O[C@@H]2O[C@H](CO)[C@@H](O)[C@H](O)[C@H]2O[C@H]2C[C@](C)(N)[C@H](O)[C@H](C)O2)Oc2ccc(cc2Cl)[C@H]1O [vancomycin]
AUC 0-last [1, 5]: 1980 (908) ^a min µg/mL | T1/2 [1, 5]: 339 (332) min | Tmax [1, 5]: 65 (26) min | AUC 0-last ([1]; subcutaneous tissue): 1881 (691) ^a min µg/mL | T1/2 ([1]; subcutaneous tissue): 361 (269) min | Tmax ([1]; subcutaneous tissue): 70 (19) min | AUC 0-last [1, 6]: 1565 (758) ^a min µg/mL | T1/2 [1, 6]: 217 (140) min | Tmax [1, 6]: 45 (21) min | T1/2 ([1]; tibial cancellous bone): 279 (188) min | Tmax ([1]; tibial cancellous bone): 111 (94) min | vancomycin concentration after 11.5 h (690 min), end concentration ([1]; tibial cancellous bone): 278 (469) µg/mL | AUC 0-last ([1]; tibial cortical bone): 326 (331) min µg/mL | Tmax ([1]; tibial cortical bone): 405 (278) min | planktonic MIC [2]: 0.5 to 4 µg/mL | systemic vancomycin plasma levels after tourniquet deflation ([3]; range): 1.8 to 6.0 µg/mL | increase of plasma levels after tourniquet deflation [3]: 4–10 fold | systemic vancomycin plasma levels during tourniquet inflation [3]: 0.0 to 2.7 µg/mL | AUC 0-last ([4]; plasma (free concentration, enzyme immunoassay), 12 h): 3,673 (611) min µg/mL | Cmax (peak drug concentration) ([4]; plasma (free concentration, enzyme immunoassay)): 19 (2) µg/mL | T1/2 ([4]; plasma): 254 (128) min | Tmax ([4]; plasma): 20 (19) min
